Assay results published in PubChem BioAssay AID624491 (Broad Institute, 2012).

These molecules were tested on D54 ERlucT glycosylation luciferase reporter, luminescence, 24 h (assay: blockers of NLG process in reporter cells – D54 ERlucT cells, luminescence, cherry-picks, dose response (AID 624491);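 also: signal gain reflects blocked N-linked glycosylation of a luciferase reporter; actives raise luciferase signal so AC26 marks activators of the reporter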).

First: CCN(CC)c1ccc(/C=C2\C(=O)N(c3nnc(C)c(=O)[nH]3)N=C2C)cc1
Second: CCN(CC)c1ccc(/C=N/NC(=O)c2cnccn2)cc1
The AC26 of the first is 1.8-fold higher: 1420 nM for the first, 780 nM for the second.

Going from `CC(Oc1ccc2c(c1)c1ccnc3c4ccccc4c(=O)n2c13)C(=O)NCCN1CCOCC1` (stereo not given) to `COC(=O)COc1cccc2c(=O)n(CC(=O)NCc3ccccc3)ccc12`, the AC26 falls from 6140 nM to 1250 nM (4.9-fold).

`Cc1noc2ncnc(Sc3ccc(Br)cc3)c12` and `CC(=O)c1sc(Nc2cccc3ccccc23)nc1C` are within 1.5-fold of each other in AC26: 4470 nM for the first, 6110 nM for the second.

Compared with `O=C(Nc1ccc(Cl)cn1)c1cccc(F)c1`, `NC(=O)c1cccc(-c2coc3c(C(=O)NCc4ccccc4)cccc23)c1` is 1.7-fold lower in AC26: 6980 nM for the first, 4070 nM for the second.

Going from `COc1cccc(C2=CC(c3cccs3)n3nnnc3N2)c1` (stereo not given) to `c1ccc(-n2nnnc2-c2cccc3ccccc23)cc1`, the AC26 rises from 700 nM to 2390 nM (3.4-fold).

First: O=C(NC1CCCCC1)c1ccc([N+](=O)[O-])o1
Second: Cc1cccn2c(=O)c3cc(C(=O)NC4CCCC4)n(C)c3nc12
The AC26 of the first is 18-fold lower: 852 nM for the first, 15100 nM for the second.

First: CCN(CC)CCn1c2ccccc2c2cnc(N)c(C#N)c21
Second: CCOC(=O)c1cnc2c(ccc3ccccc32)c1NCCCN(C)C
The AC26 of the first is 2.7-fold lower: 750 nM for the first, 2050 nM for the second.

Going from `COc1ccc(Nc2nc(N3CCCC3)nc3ccccc23)c(OC)c1` to `Cc1ccc(-c2nc(NCCCN(C)C)c3ccccc3n2)cc1`, the AC26 rises from 1950 nM to 5650 nM (2.9-fold).

Going from `COc1ccc(-n2c(=S)[nH]c3cc(C(=O)Nc4ccc(C)c(F)c4)ccc3c2=O)c(OC)c1` to `COc1ccc(N/C=C/C(=O)c2cc(OC)c(OC)c(OC)c2)cc1`, the AC26 falls from 9690 nM to 28.7 nM (340-fold).

Going from `COc1ccc(S(=O)(=O)NCc2ccccn2)cc1NC(=O)c1ccccc1C` to `COc1ccccc1CCNCc1ccc(OC)c(OCc2ccccc2)c1`, the AC26 falls from 2690 nM to 994 nM (2.7-fold).

`COc1cc(C2Sc3ccccc3NC3=C2C(=O)OC3)cc(OC)c1OC` (stereo not given) and `COc1ccccc1C1CC(=O)Nc2cc3c(cc21)OCCO3` (stereo not given) are within 1.5-fold of each other in AC26: 12300 nM for the first, 10500 nM for the second.

Compared with `C=C1c2nc3ccccc3n2C=C(c2ccc(C)cc2)N1c1ccccc1`, `COc1ccc(C(=O)/C=C/c2ccc(-c3ccccc3)cc2)cc1CSCC(=O)O` is 6.5-fold lower in AC26: 9580 nM for the first, 1480 nM for the second.

First: CCOC(=O)C(CC)(CC)C(=O)/C=C/c1cccc(Br)c1
Second: CCOC(=O)c1[nH]c(C)c(C(=O)N2CCc3ccccc32)c1C
The AC26 of the first is 3.9-fold higher: 517 nM for the first, 133 nM for the second.

Going from `CC[C@]12c3[nH]c4cc(CCC(=O)N(C)C)ccc4c3CCN1C(=O)[C@@H](CC(=O)NC/C=C(\C)CCC=C(C)C)C[C@@H]2C(=O)N1CCN(C(=O)c2ccco2)CC1` to `COc1ccc(C(=O)N2CCN(S(=O)(=O)c3ccc(C)cc3C)CC2)cc1S(=O)(=O)N1CCOCC1`, the AC26 rises from 2860 nM to 5770 nM (2-fold).

Going from `CC1(C(=O)NCc2cccs2)Cc2c(-c3ccc4c(c3)OCO4)ccnc2O1` (stereo not given) to `CCOc1ccccc1C1CC(=O)Nc2cc3c(cc21)OCO3` (stereo not given), the AC26 rises from 2060 nM to 4370 nM (2.1-fold).

`CCOC(=O)C1=CC[C@@H](c2ccncc2)N(S(=O)(=O)c2ccc(C)cc2)C1` and `COC(=O)c1ccc(S(=O)(=O)N2CCc3ccccc32)cc1` are within 1.5-fold of each other in AC26: 12100 nM for the first, 10600 nM for the second.

Compared with `COc1ccc(S(=O)(=O)N2N=C(C)Oc3ccccc3C2=O)cc1`, `CCOc1ccc(Cl)cc1C1=CC(=O)C[C@H](c2ccc(OC)cc2)C1` is 2.6-fold lower in AC26: 1250 nM for the first, 472 nM for the second.

First: COC(=O)C1=C(c2cc3ccccc3o2)C[C@@H]2CC[C@H]1N2C(=O)N1CCCCC1
Second: COc1ccc(S(=O)Cc2ccc(C(=O)N3CCN(c4cccc(C)c4C)CC3)o2)cc1 (stereo not given)
The AC26 of the first is 9.9-fold higher: 14200 nM for the first, 1430 nM for the second.

Compared with `Cc1ccc(-c2nn3c(C)nnc3c3ccccc23)cc1S(=O)(=O)NC(C)(C)CO`, `COc1cc(C)c2sc3ccccc3c(=O)c2c1NCCN(C)C` is 1.8-fold lower in AC26: 826 nM for the first, 468 nM for the second.

First: Nc1nc(CN2CCN(Cc3ccccc3)CC2)nc(Nc2ccc3c(c2)OCCO3)n1
Second: O=C1CCCN1CCCNc1nc(NCc2ccccc2)nc2ccsc12
The AC26 of the first is 6.1-fold lower: 699 nM for the first, 4240 nM for the second.

`O=c1[nH]c(=O)c2nc3c4ccccc4c4ccccc4c3nc2[nH]1` and `OCCCNc1c2ccccc2nc2ccccc12` are within 1.5-fold of each other in AC26: 392 nM for the first, 467 nM for the second.

Going from `COc1nc(=O)n(C2C=CC(=O)O2)cc1F` (stereo not given) to `O=C(OCn1ncc(Cl)c(Cl)c1=O)c1ccc(C(F)(F)F)cc1`, the AC26 falls from 3200 nM to 1130 nM (2.8-fold).

First: CCN(CCCNC(=O)CCCOc1cc(=O)n(C)c2ccccc12)Cc1ccccc1
Second: CSc1nnc(-c2sccc2OCc2ccccc2)n1C
The AC26 of the first is 1.8-fold higher: 3420 nM for the first, 1950 nM for the second.

Going from `CCOC(=O)c1c(NC(=O)CN2C(=O)NC3(CCCCC3C)C2=O)sc(C)c1CC` (stereo not given) to `CCOC(=O)c1c(C)nc2sc3c(=O)n(-c4ccc(C)cc4)cnc3c2c1-c1ccc(OC)cc1`, the AC26 falls from 6750 nM to 116 nM (58-fold).

Compared with `COC(=O)c1ccc(C)c(NS(=O)(=O)c2ccc3c(c2)OCCO3)c1`, `COC(=O)c1ccc(/C=C/C(=O)c2ccc(OC)c(OC)c2)cc1` is 92-fold higher in AC26: 44.7 nM for the first, 4100 nM for the second.

Going from `O=C(NCCCN1CCOCC1)c1cc(-c2cccs2)on1` to `Cc1nc(N=C(N)N)nc2c(C)cccc12`, the AC26 falls from 3670 nM to 2200 nM (1.7-fold).

`CCc1ccc(Nc2n[n+](-c3ccccc3)c(-c3ccc(N(CC)CC)cc3)s2)cc1` and `C=CCN1c2ccccc2[C@]23C[C@@H](C(=O)OC)N(C(=O)c4ccc(Br)cc4)C2=NC(C(=O)OC)=C(C(=O)OC)[C@H]13` are within 1.5-fold of each other in AC26: 7030 nM for the first, 6060 nM for the second.

Work on `C/C(=N\O)C(=O)C(CN1CCCCC1)CN1CCCCC1` yielded an AC26 of 1500 nM.
